Reference: patent US20140200233A1, “USE OF MAD2L2 AS A STRATIFICATION MARKER IN THE TREATMENT OF BREAST TUMOURS WITH NOVEL PAN-CDK INHIBITORS” (BAYER INTELLECTUAL PROPERTY GMBH, priority 2011, published 2014)
pIC50: −log10 of the molar value.

Tests used:
Type in all cases: cell-based
NCI-H1581 = assay: Proliferation assay, Method 2 (Vybrant MTT); conditions: Homo sapiens, NCI-H1581 (non-small-cell lung carcinoma)
NCI-H23 = assay: Proliferation assay, Method 2 (Vybrant MTT); conditions: Homo sapiens, NCI-H23 (non-small-cell lung carcinoma)
Hs 578T = assay: Proliferation assay, Method 2 (Vybrant MTT); conditions: Homo sapiens, Hs 578T breast tumour cell line
SK-MES-1 = assay: Proliferation assay, Method 2 (Vybrant MTT); conditions: Homo sapiens, SK-MES-1 (squamous-cell carcinoma)
DU-4475 = assay: Proliferation assay, Method 2 (Vybrant MTT); conditions: Homo sapiens, DU-4475 breast tumour cell line
NCI-H1793 = assay: Proliferation assay, Method 2 (Vybrant MTT); conditions: Homo sapiens, NCI-H1793 (non-small-cell lung carcinoma)
EVSA-T = assay: Proliferation assay, Method 2 (Vybrant MTT); conditions: Homo sapiens, EVSA-T breast tumour cell line
MDA-MB-231 = assay: Proliferation assay, Method 2 (Vybrant MTT); conditions: Homo sapiens, MDA-MB-231 breast tumour cell line
NCI-H810 = assay: Proliferation assay, Method 2 (Vybrant MTT); conditions: Homo sapiens, NCI-H810 (non-small-cell lung carcinoma)
MDA-MB-453 = assay: Proliferation assay, Method 2 (Vybrant MTT); conditions: Homo sapiens, MDA-MB-453 breast tumour cell line
BT-474 = assay: Proliferation assay, Method 2 (Vybrant MTT); conditions: Homo sapiens, BT-474 breast tumour cell line
NCI-H358 = assay: Proliferation assay, Method 2 (Vybrant MTT); conditions: Homo sapiens, NCI-H358 (non-small-cell lung carcinoma)
NCI-H661 = assay: Proliferation assay, Method 2 (Vybrant MTT); conditions: Homo sapiens, NCI-H661 (non-small-cell lung carcinoma)
DU145 = assay: Proliferation assay, Method 1 (crystal violet); conditions: Homo sapiens, DU-145, 96 h, DU145 prostate carcinoma cell line, 4 days
Experimental: (§1) This assay was used for the following cell lines: MCF 10A, SK-BR-3, MCF7, HCT 116, HT-29, SW480, Caco-2, MIAPaCa-2, DU145, PC3, HeLa, Caki2, 786-0, A-375, NCI-H460, NCI-H69, NCI-H1975, A549.
(§2) Cultivated human tumour cells (originally obtained from ATCC, HeLa-MaTu and HeLa-MaTu-ADR, originally obtained from Epo GmbH, Berlin) were plated in a density of from 1000 to 5000 cells/measurement point, depending on the growth rate of the cell line, in a 96-well multititre plate in 200 μl of growth medium (DMEM/HAMS F12, 2 mM L-glutamine, 10% foetal calf serum). After 24 hours, the cells of one plate (zero-point plate) were stained with crystal violet (see below), while the medium of the other plates was replaced by fresh culture medium (200 μl) with added test substances in various concentrations (0 μM, and in the range of 0.01-30 μM; the final concentration of the solvent dimethyl sulphoxide was 0.5%). The cells were incubated in the presence of the test substances for 4 days. Cell proliferation was determined by staining the cells with crystal violet: the cells were fixated by addition of 20 μl/measuring point of an 11% strength glutaraldehyde solution for 15 min at room temperature. After the fixated cells had been washed three times with water, the plates were dried at room temperature. The cells were stained by addition of 100 μl/measuring point of a 0.1% strength crystal violet solution (pH adjusted to pH 3 by addition of acetic acid). After the stained cells had been washed three times with water, the plates were dried at room temperature. The dye was dissolved by addition of 100 μl/measuring point of a 10% strength acetic acid solution. The absorption was determined photometrically at a wavelength of 595 nm. The change in percent of the cell growth was calculated by normalizing the measured values to the absorption values of the zero-point plate (=0%) and the absorption of the untreated (0 μM) cells (=100%). The measured data were normalized to 0% inhibition (cell proliferation without inhibitor) and 100% inhibition (zero-point plate). The IC50 values were determined using a 4-parameter fit with the aid of proprietary software.

A-375 = assay: Proliferation assay, Method 1 (crystal violet); conditions: Homo sapiens, 96 h, A-375 melanoma cell line, 4 days
Experimental: as §1, §2

SK-BR-3 = assay: Proliferation assay, Method 1 (crystal violet); conditions: Homo sapiens, 96 h, SK-BR-3 breast tumour cell line, 4 days
Experimental: as §1, §2

MIAPaCa-2 = assay: Proliferation assay, Method 1 (crystal violet); conditions: Homo sapiens, MIA PaCa-2, 96 h, MIAPaCa-2 pancreas carcinoma cell line, 4 days
Experimental: as §1, §2

786-O = assay: Proliferation assay, Method 1 (crystal violet); conditions: Homo sapiens, 786-0, 96 h, 786-O renal carcinoma cell line, 4 days
Experimental: as §1, §2

HeLa = assay: Proliferation assay, Method 1 (crystal violet); conditions: Homo sapiens, 96 h, HeLa cervix carcinoma cell line, 4 days
Experimental: as §1, §2

SW480 = assay: Proliferation assay, Method 1 (crystal violet); conditions: Homo sapiens, 96 h, SW480 colon carcinoma cell line, 4 days
Experimental: as §1, §2

HT-29 = assay: Proliferation assay, Method 1 (crystal violet); conditions: Homo sapiens, 96 h, HT-29 colon carcinoma cell line, 4 days
Experimental: as §1, §2

Caco-2 = assay: Proliferation assay, Method 1 (crystal violet); conditions: Homo sapiens, 96 h, Caco-2 colon carcinoma cell line, 4 days
Experimental: as §1, §2

HCT 116 = assay: Proliferation assay, Method 1 (crystal violet); conditions: Homo sapiens, 96 h, HCT 116 colon carcinoma cell line, 4 days
Experimental: as §1, §2

MCF7 = assay: Proliferation assay, Method 1 (crystal violet); conditions: Homo sapiens, 96 h, MCF7 breast tumour cell line, 4 days
Experimental: as §1, §2

Caki2 = assay: Proliferation assay, Method 1 (crystal violet); conditions: Homo sapiens, CAKI-2, 96 h, Caki2 renal carcinoma cell line, 4 days
Experimental: as §1, §2

PC3 = assay: Proliferation assay, Method 1 (crystal violet); conditions: Homo sapiens, PC-3, 96 h, PC3 prostate carcinoma cell line, 4 days
Experimental: as §1, §2

NCI-H2030 = assay: Proliferation assay, Method 2 (Vybrant MTT); conditions: Homo sapiens, NCI-H2030 (non-small-cell lung carcinoma)
T-47D = assay: Proliferation assay, Method 2 (Vybrant MTT); conditions: Homo sapiens, T47D, T-47D breast tumour cell line
MDA-MB-435s = assay: Proliferation assay, Method 2 (Vybrant MTT); conditions: Homo sapiens, MDA-MB-435s breast tumour cell line
NCI-H2170 = assay: Proliferation assay, Method 2 (Vybrant MTT); conditions: Homo sapiens
NCI-H441 = assay: Proliferation assay, Method 2 (Vybrant MTT); conditions: Homo sapiens, NCI-H441 (papillary lung carcinoma)
NCI-H226 = assay: Proliferation assay, Method 2 (Vybrant MTT); conditions: Homo sapiens, NCI-H226 (mesothelioma)
NCI-H460 = assay: Proliferation assay (listed under Method 1 and Method 2); conditions: Homo sapiens; NCI-H460 (non-small-cell lung carcinoma); method 1 or 2
Experimental: as §1, §2

NCI-H1975 = assay: as above; conditions: Homo sapiens; NCI-H1975 (non-small-cell lung carcinoma); method 1 or 2
Experimental: as §1, §2

NCI-H69 = assay: as above; conditions: Homo sapiens; NCI-H69 (small-cell lung carcinoma); method 1 or 2
Experimental: as §1, §2

MCF 10A = assay: as above; conditions: Homo sapiens; MCF 10A breast cell line; method 1 or 2
Experimental: as §1, §2

A549 = assay: as above; conditions: Homo sapiens; A549 (non-small-cell lung carcinoma); method 1 or 2
Experimental: as §1, §2

MDA-MB-468 = assay: Proliferation assay, Method 2 (Vybrant MTT); conditions: Homo sapiens, MDA-MB-468 breast tumour cell line
NCI-H1048 = assay: Proliferation assay, Method 2 (Vybrant MTT); conditions: Homo sapiens, NCI-H1048 (small-cell lung carcinoma)
NCI-H1838 = assay: Proliferation assay, Method 2 (Vybrant MTT); conditions: Homo sapiens, NCI-H1838 (non-small-cell lung carcinoma)
BT-549 = assay: Proliferation assay, Method 2 (Vybrant MTT); conditions: Homo sapiens, BT-549 breast tumour cell line
NCI-H1437 = assay: Proliferation assay, Method 2 (Vybrant MTT); conditions: Homo sapiens, NCI-H1437 (non-small-cell lung carcinoma)
ZR-75-1 = assay: Proliferation assay, Method 2 (Vybrant MTT); conditions: Homo sapiens, ZR-75-1 breast tumour cell line
NCI-H522 = assay: Proliferation assay, Method 2 (Vybrant MTT); conditions: Homo sapiens, NCI-H522 (non-small-cell lung carcinoma)
NCI-H2228 = assay: Proliferation assay, Method 2 (Vybrant MTT); conditions: Homo sapiens, NCI-H2228 (non-small-cell lung carcinoma)
ChaGo-K-1 = assay: Proliferation assay, Method 2 (Vybrant MTT); conditions: Homo sapiens, ChaGo-K-1 (undifferentiated bronchial carcinoma)
NCI-H2347 = assay: Proliferation assay, Method 2 (Vybrant MTT); conditions: Homo sapiens, NCI-H2347 (non-small-cell lung carcinoma)
NCI-H1563 = assay: Proliferation assay, Method 2 (Vybrant MTT); conditions: Homo sapiens, NCI-H1563 (non-small-cell lung carcinoma)
NCI-H1703 = assay: Proliferation assay, Method 2 (Vybrant MTT); conditions: Homo sapiens, NCI-H1703 (non-small-cell lung carcinoma)
BT-20 = assay: Proliferation assay, Method 2 (Vybrant MTT); conditions: Homo sapiens, BT-20 breast tumour cell line
KPL-1 = assay: Proliferation assay, Method 2 (Vybrant MTT); conditions: Homo sapiens, KPL-1 breast tumour cell line

pIC50 (NCI-H1581): 7.27
pIC50 (NCI-H23): 7.34
pIC50 (SK-MES-1): 7.58
pIC50 (NCI-H1793): 7.65
pIC50 (MDA-MB-231): 7.69
pIC50 (NCI-H810): 8.05
pIC50 (MDA-MB-453): 7.82
pIC50 (BT-474): 7.37
pIC50 (NCI-H358): 7.71
pIC50 (NCI-H661): 7.27
pIC50 (DU145): 8.10
pIC50 (A-375): 7.85
pIC50 (SK-BR-3): 7.89
pIC50 (MIAPaCa-2): 7.68
pIC50 (786-O): 7.70
pIC50 (HeLa): 7.92
pIC50 (SW480): 7.82
pIC50 (HT-29): 7.54
pIC50 (Caco-2): 7.80
pIC50 (HCT 116): 7.74
pIC50 (MCF7): 7.82
pIC50 (PC3): 7.60
pIC50 (NCI-H2030): 7.75
pIC50 (T-47D): 7.47
pIC50 (MDA-MB-435s): 7.44
pIC50 (NCI-H2170): 7.31
pIC50 (NCI-H441): 8.00
pIC50 (NCI-H226): 7.26
pIC50 (NCI-H460): 7.57
pIC50 (NCI-H1975): 7.62
pIC50 (NCI-H69): 7.57
pIC50 (A549): 7.51
pIC50 (MDA-MB-468): 7.54
pIC50 (NCI-H1048): 7.60
pIC50 (NCI-H1838): 7.80
pIC50 (BT-549): 7.08
pIC50 (NCI-H1437): 7.16
pIC50 (NCI-H522): 7.18
pIC50 (NCI-H2228): 7.28
pIC50 (NCI-H2347): 7.55
pIC50 (NCI-H1563): 7.23
pIC50 (NCI-H1703): 7.27
pIC50 (BT-20): 7.42
Compound: C[C@@H](O)[C@@H](C)Oc1nc(Nc2ccc([S@](=N)(=O)C3CC3)cc2)ncc1C(F)(F)F [Compound A, (2R,3R)-3-{[2-{[4-(R-cyclopropylsulphonimidoyl)phenyl]amino}-5-(trifluoromethyl)pyrimidin-4-yl]oxy}butan-2-ol]
pIC50 (Hs 578T): 7.77
pIC50 (DU-4475): 7.43
pIC50 (EVSA-T): 7.35
pIC50 (Caki2): 7.59
pIC50 (MCF 10A): 7.70
pIC50 (ZR-75-1): 7.49
pIC50 (ChaGo-K-1): 7.16
pIC50 (KPL-1): 8.19
